This passage reports IC50 results from patent US20070049593A1 (priority 2004, published 2007).

Counter-ions that a name gives are not always drawn.

For the assay, the target named is T1, HCV polymerase (Hepatitis C virus genotype 1b, UniProt P26663).
T1 construct: a region encoding NS5B (J Virol 1991 March, 65(3), 1105-13, 544 amino acids after deletion of 47 amino acids on the C-terminal); 6xHis (C); made in house; host or cells: Escherichia coli
T1 sequence (P26663 2420-2963): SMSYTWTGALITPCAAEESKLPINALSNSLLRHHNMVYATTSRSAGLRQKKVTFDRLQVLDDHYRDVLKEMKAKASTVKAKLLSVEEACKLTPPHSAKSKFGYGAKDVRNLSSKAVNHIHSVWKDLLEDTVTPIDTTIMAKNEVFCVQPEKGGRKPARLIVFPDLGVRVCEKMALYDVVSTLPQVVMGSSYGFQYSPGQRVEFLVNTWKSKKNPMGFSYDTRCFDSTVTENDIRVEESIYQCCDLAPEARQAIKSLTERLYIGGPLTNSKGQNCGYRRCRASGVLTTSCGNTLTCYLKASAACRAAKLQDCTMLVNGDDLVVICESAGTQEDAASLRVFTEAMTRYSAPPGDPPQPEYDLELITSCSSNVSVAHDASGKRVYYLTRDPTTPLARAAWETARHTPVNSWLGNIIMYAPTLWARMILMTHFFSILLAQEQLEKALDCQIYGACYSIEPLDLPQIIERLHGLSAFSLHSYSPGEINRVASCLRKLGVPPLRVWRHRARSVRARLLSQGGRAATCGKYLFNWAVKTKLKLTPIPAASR
Nature of the assay: biochemical. On the set-up: species or system HCV BK strain. The source says:
The evaluation of the HCV polymerase inhibitory activity of the compound of the present invention is explained in the following. This polymerase is an enzyme coded for by the non-structural protein region called NS5B on the genome RNA of HCV (EMBO J., 15:12-22, 1996).
Using, as a template, a cDNA clone corresponding to the full length genome RNA of HCV BK strain obtained from the blood of a patient with hepatitis C, a region encoding NS5B (J Virol 1991 March, 65(3), 1105-13, 544 amino acids after deletion of 47 amino acids on the C-terminal) was amplified by PCR. The objective gene was prepared by adding a 6 His tag {base pair encoding 6 continuous histidine (His)}to the 3′ end thereof and transformed to Escherichia coli. The Escherichia coli capable of producing the objective protein was cultured. The obtained cells were suspended in a buffer solution and crushed in a microfluidizer.
Using a synthetic primer designed based on the sequence of HCV genomic 3′ untranslated region, a DNA fragment (148 bp) containing polyU and 3′X sequence was entirely synthesized and cloned into plasmid pBluescript SK II(+) (Stratagene). The cDNA encoding full length NS5B, which was prepared in i) above, was digested with restriction enzyme KpnI to give a cDNA fragment containing the nucleotide sequence of from the restriction enzyme cleavage site to the termination codon. This cDNA fragment was inserted into the upstream of 3′ untranslated region of the DNA in pBluescript SK II(+) and ligated. The about 450 bp inserted DNA sequence was used as a template in the preparation of substrate RNA.
RNA was synthesized (37° C., 3 hr) by run-off method using this purified DNA as a template, a promoter of pBluescript SK II(+), MEGAscript RNA synthesis kit (Ambion) and T7 RNA polymerase. DNase I was added and the mixture was incubated for 1 hr. The template DNA was removed by decomposition to give a crude RNA product.
A test substance (compound of the present invention) and a reaction mixture (30 μl) having the following composition were reacted at 25° C. for 90 min.
10% Trichloroacetic acid at 4° C. and 1% sodium pyrophosphate solution (150 μl) were added to this reaction mixture to stop the reaction. The reaction mixture was left standing in ice for 15 min to insolubilize RNA. This RNA was trapped on a glass filter (Whatman GF/C and the like) upon filtration by suction. This filter was washed with a solution containing 1% trichloroacetic acid and 0.1% sodium pyrophosphate, washed with 90% ethanol and dried. A liquid scintillation cocktail (Packard) was added and the radioactivity of RNA synthesized by the enzyme reaction was measured on a liquid scintillation counter.
The HCV polymerase inhibitory activity (IC50) of the compound of the present invention was calculated from the values of radioactivity of the enzyme reaction with and without the test substance.
Reaction mixture: HCV polymerase (0.5 μg/ml) obtained in i), substrate RNA (5 μg/ml) obtained in ii), ATP (50 μM), GTP (50 μM), CTP ([…]), UTP (2 μM), [5,6-^3H]UTP (46 Ci/mmol (Amersham), 1 μCi) 20 mM Tris-HCl (pH 7.5), EDTA (1 mM), MgCl2 (5 mM), NaCl (50 mM), DTT (1 mM), BSA (0.01%)
The IC50 is the concentration that inhibits the measured activity by half. A low value points to inhibition by little substance. Take `O=C(O)c1ccc2c(C3CCCCC3)c3n(c2c1)CCNc1ccccc1-3` [Example 1-3, 13-cyclohexyl-6,7-dihydro-5H-benzo[5,6][1,4]diazepino[7,1-a]indole-10-carboxylic acid monohydrochloride]: the IC50 was < 100 nM.

As to `O=C(O)c1ccc2c(C3CCCCC3)c3n(c2c1)CCN(CC(=O)N1CCSCC1)c1ccccc1-3` [Example 1-7, 13-cyclohexyl-5-[2-oxo-2-(thiomorpholin-4-yl)ethyl]-6,7-dihydro-5H-benzo[5,6][1,4]diazepino[7,1-a]indole-10-carboxylic acid monohydrochloride], the IC50 is < 100 nM.

As for `O=C(O)c1ccc2c(C3CCCCC3)c3n(c2c1)CCN(CCN1CCSCC1)c1ccccc1-3` [Example 1-9, 13-cyclohexyl-5-[2-(thiomorpholin-4-yl)ethyl]-6,7-dihydro-5H-benzo[5,6][1,4]diazepino[7,1-a]indole-10-carboxylic acid dihydrochloride], the IC50 is < 100 nM.

Consider `O=C(O)c1ccc2c(C3CCCCC3)c3n(c2c1)CCN(CCN1CCCCC1)c1cc(Cl)ccc1-3` [Example 1-14, 3-chloro-13-cyclohexyl-5-[2-(piperidin-1-yl)ethyl]-6,7-dihydro-5H-benzo[5,6][1,4]diazepino[7,1-a]indole-10-carboxylic acid dihydrochloride], for which the IC50 was < 100 nM.

For the compound `O=C(O)c1ccc2c(C3CCCCC3)c3n(c2c1)CCN(CCN1CCCCC1)c1ccc(F)cc1-3` [Example 1-18, 13-cyclohexyl-2-fluoro-5-[2-(piperidin-1-yl)ethyl]-6,7-dihydro-5H-benzo[5,6][1,4]diazepino[7,1-a]indole-10-carboxylic acid dihydrochloride], the IC50 was < 100 nM.

`CC(=O)N1CCn2c(c(C3CCCCC3)c3ccc(C(=O)O)cc32)-c2ccccc21` [Example 1-19, 5-acetyl-13-cyclohexyl-6,7-dihydro-5H-benzo[5,6][1,4]diazepino[7,1-a]indole-10-carboxylic acid] showed an IC50 of 100 to 1000 nM.

Take `CN1CCn2c(c(C3CCCCC3)c3ccc(C(=O)O)cc32)-c2ccccc21` [Example 1-20, 13-cyclohexyl-5-methyl-6,7-dihydro-5H-benzo[5,6][1,4]diazepino[7,1-a]indole-10-carboxylic acid]: the IC50 is < 100 nM.

For `CN(C)C(=O)CN1CCn2c(c(C3CCCCC3)c3ccc(C(=O)O)cc32)-c2ccccc21` [Example 1-21, 13-cyclohexyl-5-dimethylcarbamoylmethyl-6,7-dihydro-5H-benzo[5,6][1,4]diazepino[7,1-a]indole-10-carboxylic acid], the IC50 was < 100 nM.

With `O=C(O)c1ccc2c(C3CCCCC3)c3n(c2c1)CCN(Cc1ccccc1)c1ccccc1-3` [Example 1-22, 5-benzyl-13-cyclohexyl-6,7-dihydro-5H-benzo[5,6][1,4]diazepino[7,1-a]indole-10-carboxylic acid], the IC50 was < 100 nM.

On to `CC(C)N1CCn2c(c(C3CCCCC3)c3ccc(C(=O)O)cc32)-c2ccccc21` [Example 1-23, 13-cyclohexyl-5-isopropyl-6,7-dihydro-5H-benzo[5,6][1,4]diazepino[7,1-a]indole-10-carboxylic acid monohydrochloride], for which the concentration for half-maximal inhibition (IC50) was < 100 nM.

`O=C1Cn2c(c(C3CCCCC3)c3ccc(C(=O)O)cc32)-c2ccccc2N1` [Example 1-24, 13-cyclohexyl-6-oxo-6,7-dihydro-5H-benzo[5,6][1,4]diazepino[7,1-a]indole-10-carboxylic acid]: the IC50 is < 100 nM.

On to `O=C(CN1CCn2c(c(C3CCCCC3)c3ccc(C(=O)O)cc32)-c2ccccc21)NCc1ccccc1` [Example 1-25, 5-(benzylcarbamoylmethyl)-13-cyclohexyl-6,7-dihydro-5H-benzo[5,6][1,4]diazepino[7,1-a]indole-10-carboxylic acid], for which the IC50 was < 100 nM.

In the case of `O=C(O)c1ccc2c(C3CCCCC3)c3n(c2c1)CCN(CC(=O)N1CCOCC1)c1ccccc1-3` [Example 1-26, 13-cyclohexyl-5-[2-(morpholin-4-yl)-2-oxoethyl]-6,7-dihydro-5H-benzo[5,6][1,4]diazepino[7,1-a]indole-10-carboxylic acid], the IC50 was < 100 nM.

As to `O=C(O)c1ccc2c(C3CCCCC3)c3n(c2c1)CCN(CCN1CCOCC1)c1ccccc1-3` [Example 1-27, 13-cyclohexyl-5-[2-(morpholin-4-yl)ethyl]-6,7-dihydro-5H-benzo[5,6][1,4]diazepino[7,1-a]indole-10-carboxylic acid dihydrochloride], the IC50 is < 100 nM.

With `COc1ccc2c(c1)N(CC(=O)N(C)C)CCn1c-2c(C2CCCCC2)c2ccc(C(=O)O)cc21` [Example 1-28, 13-cyclohexyl-5-dimethylcarbamoylmethyl-3-methoxy-6,7-dihydro-5H-benzo[5,6][1,4]diazepino[7,1-a]indole-10-carboxylic acid], the IC50 is < 100 nM.

For the compound `O=C(O)c1ccc2c(C3CCCCC3)c3n(c2c1)CCN(CC(=O)N1CCCCC1)c1ccccc1-3` [Example 1-29, 13-cyclohexyl-5-[2-oxo-2-(piperidin-1-yl)ethyl]-6,7-dihydro-5H-benzo[5,6][1,4]diazepino[7,1-a]indole-10-carboxylic acid], the IC50 is < 100 nM.

For the compound `CCN1CCN(C(=O)CN2CCn3c(c(C4CCCCC4)c4ccc(C(=O)O)cc43)-c3ccccc32)CC1` [Example 1-30, 13-cyclohexyl-5-[2-(4-ethylpiperazin-1-yl)-2-oxoethyl]-6,7-dihydro-5H-benzo[5,6][1,4]diazepino[7,1-a]indole-10-carboxylic acid dihydrochloride], the IC50 is < 100 nM.

`CN(C)C(=O)N1CCn2c(c(C3CCCCC3)c3ccc(C(=O)O)cc32)-c2ccccc21` [Example 1-31, 13-cyclohexyl-5-dimethylcarbamoyl-6,7-dihydro-5H-benzo[5,6][1,4]diazepino[7,1-a]indole-10-carboxylic acid] displayed a 50% inhibitory concentration (IC50) of 100 to 1000 nM.

`O=C(O)c1ccc2c(C3CCCCC3)c3n(c2c1)CCN(CCN1CCCCC1)c1ccccc1-3` [Example 1-32, 13-cyclohexyl-5-[2-(piperidin-1-yl)ethyl]-6,7-dihydro-5H-benzo[5,6][1,4]diazepino[7,1-a]indole-10-carboxylic acid dihydrochloride]: the IC50 was < 100 nM.

In the case of `O=C(CN1CCn2c(c(C3CCCCC3)c3ccc(C(=O)O)cc32)-c2ccccc21)NCc1ccccn1` [Example 1-33, 13-cyclohexyl-5-{[(pyridin-2-ylmethyl)carbamoyl]methyl}-6,7-dihydro-5H-benzo[5,6][1,4]diazepino[7,1-a]indole-10-carboxylic acid dihydrochloride], the IC50 is < 100 nM.

Consider `O=C(O)c1ccc2c(C3CCCCC3)c3n(c2c1)CCN(CCNCc1ccccn1)c1ccccc1-3` [Example 1-34, 13-cyclohexyl-5-{2-[(pyridin-2-ylmethyl)amino]ethyl}-6,7-dihydro-5H-benzo[5,6][1,4]diazepino[7,1-a]indole-10-carboxylic acid trihydrochloride], for which the IC50 is < 100 nM.

For the compound `O=C(O)c1ccc2c(C3CCCCC3)c3n(c2c1)CCN(CC(=O)N1CCC(O)CC1)c1ccccc1-3` [Example 1-35, 13-cyclohexyl-5-[2-(4-hydroxypiperidin-1-yl)-2-oxoethyl]-6,7-dihydro-5H-benzo[5,6][1,4]diazepino[7,1-a]indole-10-carboxylic acid monohydrochloride], the IC50 was < 100 nM.

For the compound `COC1CCN(C(=O)CN2CCn3c(c(C4CCCCC4)c4ccc(C(=O)O)cc43)-c3ccccc32)CC1` [Example 1-36, 13-cyclohexyl-5-[2-(4-methoxypiperidin-1-yl)-2-oxoethyl]-6,7-dihydro-5H-benzo[5,6][1,4]diazepino[7,1-a]indole-10-carboxylic acid monohydrochloride], the half-maximal inhibitory concentration (IC50) was < 100 nM.
